# Results: patent US6844342B2, “Heterocyclic substituted 2-methyl-benzimidazole antiviral agents” (Bristol-Myers Squibb Company, priority 2000, dated 2005)
# pEC50: −log10 of the molar value.
# Test system: respiratory syncytial virus Long strain
# Assay: Antiviral activity against respiratory syncytial virus in HEp-2 cells (MTT cell protection)
# Format: cell-based
# Description: The antiviral activity of these compounds against respiratory syncytial virus was determined in HEp-2 (ATCC CCL 23) cells that were seeded in 96 well microtiter plates at 1.5×10^4 cells/100 μL/well in DMEM (Dulbecco's Modified Eagle's Medium) supplemented with penicillin, streptomycin, glutamine, and 10% fetal bovine serum. The cells were incubated overnight at 37° C., the culture medium was removed, and cells were infected (100 μL volume in medium containing 2% fetal bovine serum) with respiratory syncytial virus Long strain at 5000 plaque forming units/mL. The compounds, 100 μL at appropriate dilution, were added to the cells 1 hour post infection. After incubation for 4 days at 37° C., the plates were stained with MTT solution (3-[4,5-dimethlythiazol-2-yl]-2,5-diphenyltetrazolium bromide) and incubated for 4 hours at 37° C. The media was aspirated from the cells and 100 μL/well of acidified isopropanol (per liter: 900 mL isopropanol, 100 mL Triton X100, and 4 mL conc. HCl) was added. Plates were incubated for 15 minutes at room temperature with shaking, and an optical density (OD 540) reading at 540 nanometer (nm) was obtained. The optical density reading is proportional to the number of viable cells. The increase in the number of viable cells reflects the protective, antiviral activity of the compound. […]
smiles,measurement,setting,value
NC(=O)c1ncn([C@@H]2O[C@H](CO)[C@@H](O)[C@H]2O)n1 [Ribavirin],cell protection,"at 2.5 μg/mL (corresponding to 10.2 μM), HEp-2 cells, RSV Long strain",100%
same,pEC50,"human respiratory syncytial virus, HEp-2 cells infected with RSV Long strain, compound added 1 hour post infection, 4 days at 37° C., read-out: EC50 (concentration that produces 50% cell protection)",5.52
